# Test results published in US12492163B2, “9H-fluorene derivatives or their pharmaceutically acceptable salts” (priority 2020, dated 2025).
# How the values were obtained:
# [1] = target: mGAT4 (Mus musculus (Mouse), UniProt P31650); assay: [3H]GABA uptake inhibition, mGAT4 in HEK293 cells; format: cell-based; conditions: inhibitor at 100 μM; remaining reuptake
# Experimental: (§1) Exemplary compounds according to the invention were screened at the Ludwig-Maximilian University of Munich to determine the inhibitory ability towards four mouse GAT transporters (mGAT1-mGAT4). […] The biological material was stably transfected human embryonic kidney HEK293 cells, expressing genes to the appropriate transporters. The generated radioactivity was measured with a liquid scintillation counter. […] These determinations were made according to the procedure described in detail in A. Kragler, G. Höfner, K. T. Wanner, Novel parent structures for inhibitors of the murine GABA transporters mGAT3 and mGAT4, Eur. J. Pharmacol. 519 (2005) 43-47.
# [2] = target: horse plasma butyrylcholinesterase (eqBuChE) (Equus caballus (Horse), UniProt P81908); assay: Ellman's test, inhibition of horse plasma butyrylcholinesterase; format: biochemical
# Experimental: (§2) The spectrophotometric Ellman's test [Ellman et al.] modified for assays in 96-well plates was used to test the activity. Reagents: 5,5′-dithiobis-(2-nitrobenzoic acid) (DTNB), eqBuChE and butyrylthiocholine iodide (BTC) were purchased from Sigma-Aldrich (Steinheim, Germany). hBuChE was from Vivonics (Bedford, MA, USA). The enzymes were prepared by dissolving in demineralized water to a concentration of 0.384 U/ml. Stock solutions of test compounds were prepared by dissolving in DMSO to a concentration of 0.0034 M. They were then diluted with water to obtain the appropriate concentrations in the wells. In the first step of the test, 25 μl of test compound (or DMSO/water mixture at the appropriate ratio for blank samples) was incubated in 0.1 M phosphate buffer (200 μl, pH=8.0) with DTNB (20 μl; 0.0025M) and with the appropriate enzyme (20 μl; eqBuChE or hBuChE) at 25° C. (animal enzyme) or 36° C. (human enzyme). After a 5 minutes incubation period, 20 μl of BTC solution (0.00375 M) was added. After another 5 minutes, the changes in absorbance of the solutions were measured at 412 nm using a multifunctional microplate reader (EnSpire Multimode; PerkinElmer; Waltham, MA, USA). All compounds were tested at a screening concentration of 10 μM (eqBuChE) or 1 μM (hBuChE). The percentage of enzyme inhibition was calculated from the equation 100-(S/B)×100, where S and B were the enzymatic activity in the test sample well and in the well without sample, respectively. […] All reactions were performed in triplicate. IC50 values were calculated using non-linear regression (GraphPad Prism 5 [GraphPad Software, San Diego, CA, USA 5.00]) for the percentage of enzyme inhibition against the inhibitor concentration used. Tacrine and donepezil were used as reference compounds.
# [3] = target: human plasma butyrylcholinesterase (hBuChE) (Homo sapiens (Human), UniProt P06276); assay: Ellman's test, inhibition of human plasma butyrylcholinesterase; format: biochemical
# Experimental: as §2
# [4] = target: mGAT3 (Mus musculus (Mouse), UniProt P31649); assay: [3H]GABA uptake inhibition, mGAT3 in HEK293 cells; format: cell-based
# Experimental: as §1
# [5] = target: human recombinant beta-secretase (hBACE1) (Homo sapiens (Human), UniProt P56817); assay: FRET assay, inhibition of human recombinant beta-secretase; format: biochemical; conditions: read-out: hBACE-1 IC50
# Experimental: The FRET assay [Vassar, et al.] was used to test activity using 384-well black plates and a microplate reader (EnSpire Multimode; PerkinElmer; Waltham, MA, USA). The test was purchased from Life Technologies Polska Sp. z o.o. (Warsaw, Poland). […] Stock solutions of test compounds were prepared in DMSO and then further diluted with assay buffer (50 mM sodium acetate; pH 4.5) to the appropriate concentrations in the wells. In the first step of the test, 10 μl of the substrate (Rh-[…] quencher, based on the so-called Swedish APP mutation) was mixed with 10 μl of the test compound (or assay buffer; for blank sample). The enzyme reaction was initiated by adding 10 μl of enzyme (hBACE1, 1 U/ml). The reaction mixture was incubated at 25° C. for 60 minutes, then 10 μL of Stop solution (2.5 M sodium acetate) was added. After stopping the reaction, fluorescence was measured at 576 nm. The percentage of enzyme inhibition was calculated from the formula [1−(S60−S0)/(C60−C0)]×100, where S0 and S60 are the fluorescence of the test sample (containing the enzyme, substrate and test compound) at the start of the reaction and after 60 minutes, respectively, whereas C0 and C60 were analogous fluorescence intensities in the blank samples (containing enzyme, substrate and buffer). All test compounds were tested at a concentration of 50 μM in triplicate. […] A BACE1 IV inhibitor (Calbiochem, Merck; Nottingham, UK) [Stachel et al.] was used as a reference compound. […] IC50 values for all test compounds were calculated using non-linear regression (GraphPad Prism 5 [GraphPad Software, San Diego, CA, USA 5.00]) for the percentage of enzyme inhibition against the inhibitor concentration used.
# [6] = target: mGAT1 (Mus musculus (Mouse), UniProt P31648); assay: [3H]GABA uptake inhibition, mGAT1 in HEK293 cells; format: cell-based
# Experimental: as §1
# [7] = target: mGAT2 (Mus musculus (Mouse), UniProt P31651); assay: [3H]GABA uptake inhibition, mGAT2 in HEK293 cells; format: cell-based; conditions: GABA reuptake
# Experimental: as §1
# [8] = target: Recombinant human Aβ1-42 peptide (Homo sapiens (Human), UniProt P05067); assay: Thioflavin T test, antiaggregation activity against beta-amyloid; format: biochemical; conditions: 10 μM test compound, 1.5 μM Aβ1-42; read-out: inh. Aβ aggr. % inh
# Experimental: The thioflavin T test [Levine III] was used for the determinations. Recombinant human Aβ1-42 peptide (HFIP pretreated, Merck Millipore, Darmstadt, Germany) was dissolved in DMSO to form a 75 μM stock solution. The solution was further diluted in HEPES buffer (150 mM HEPES, pH 7.4, 150 mM NaCl) to a concentration of 7.5 μM. Then, the Aβ1-42 solution was added to the test compounds (black 96-well plates were used) and diluted with thioflavin T solution (10 μM final concentration). The final mixture contained 1.5 μM Aβ1-42, 10 μM test compound, and 3% of DMSO. Fluorescence was measured every 300 s (excitation wavelength was 440 nm, emission wavelength was 490 nm) with continuous mixing between measurements. A multifunction microplate reader (Synergy H4; BioTek Instruments, Inc., Winooski, VT, USA) was used to measure the fluorescence. Fluorescence started increasing after approximately 4 hours, plateaued after 20 hours and remained virtually unchanged for the next 28 hours of incubation. The plateau-phase fluorescence intensities (in the presence and absence of test compounds) were averaged and the mean fluorescence values for the respective wells at t=0 h were subtracted from them. […] IC50 values were calculated using non-linear regression (GraphPad Prism 5 [GraphPad Software, San Diego, CA, USA 5.00]) for the percentage of aggregation inhibition against the inhibitor concentration used.
# [9] = inhibitor at 100 μM, remaining reuptake
# Chain of human recombinant beta-secretase (hBACE1) (P56817 46-501): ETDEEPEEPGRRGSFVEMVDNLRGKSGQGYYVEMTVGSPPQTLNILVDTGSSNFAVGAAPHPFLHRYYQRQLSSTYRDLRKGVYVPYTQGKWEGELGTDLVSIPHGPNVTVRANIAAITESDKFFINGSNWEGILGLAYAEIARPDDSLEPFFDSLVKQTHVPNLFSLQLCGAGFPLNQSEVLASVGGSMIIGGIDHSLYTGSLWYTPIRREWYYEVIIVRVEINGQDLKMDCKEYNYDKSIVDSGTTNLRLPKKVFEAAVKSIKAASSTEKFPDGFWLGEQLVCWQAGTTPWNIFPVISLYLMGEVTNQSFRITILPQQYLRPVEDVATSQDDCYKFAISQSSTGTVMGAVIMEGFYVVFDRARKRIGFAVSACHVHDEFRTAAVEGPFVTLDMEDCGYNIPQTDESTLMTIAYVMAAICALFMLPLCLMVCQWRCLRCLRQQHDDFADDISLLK
# Chain of mGAT4 (P31650 whole entry): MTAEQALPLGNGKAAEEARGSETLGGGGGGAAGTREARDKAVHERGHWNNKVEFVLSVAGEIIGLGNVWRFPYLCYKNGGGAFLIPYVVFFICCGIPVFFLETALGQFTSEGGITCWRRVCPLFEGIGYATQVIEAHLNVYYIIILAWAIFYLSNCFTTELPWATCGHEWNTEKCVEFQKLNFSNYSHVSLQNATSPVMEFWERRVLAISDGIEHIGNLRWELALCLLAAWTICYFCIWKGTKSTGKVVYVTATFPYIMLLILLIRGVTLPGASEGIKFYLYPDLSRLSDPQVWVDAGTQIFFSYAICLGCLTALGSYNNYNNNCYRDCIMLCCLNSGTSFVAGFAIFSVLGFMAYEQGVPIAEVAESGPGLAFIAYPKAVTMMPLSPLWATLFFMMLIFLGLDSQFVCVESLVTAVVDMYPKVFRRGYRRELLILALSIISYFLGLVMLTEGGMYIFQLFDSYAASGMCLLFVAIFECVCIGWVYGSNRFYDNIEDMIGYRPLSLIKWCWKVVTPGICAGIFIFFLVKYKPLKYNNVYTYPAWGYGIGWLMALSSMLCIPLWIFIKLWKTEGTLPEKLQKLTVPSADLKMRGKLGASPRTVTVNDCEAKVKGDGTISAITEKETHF
# Chain of Recombinant human Aβ1-42 peptide (P05067 672-713): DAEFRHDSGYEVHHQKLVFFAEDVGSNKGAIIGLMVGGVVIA
# Chain of horse plasma butyrylcholinesterase (eqBuChE) (P81908 whole entry): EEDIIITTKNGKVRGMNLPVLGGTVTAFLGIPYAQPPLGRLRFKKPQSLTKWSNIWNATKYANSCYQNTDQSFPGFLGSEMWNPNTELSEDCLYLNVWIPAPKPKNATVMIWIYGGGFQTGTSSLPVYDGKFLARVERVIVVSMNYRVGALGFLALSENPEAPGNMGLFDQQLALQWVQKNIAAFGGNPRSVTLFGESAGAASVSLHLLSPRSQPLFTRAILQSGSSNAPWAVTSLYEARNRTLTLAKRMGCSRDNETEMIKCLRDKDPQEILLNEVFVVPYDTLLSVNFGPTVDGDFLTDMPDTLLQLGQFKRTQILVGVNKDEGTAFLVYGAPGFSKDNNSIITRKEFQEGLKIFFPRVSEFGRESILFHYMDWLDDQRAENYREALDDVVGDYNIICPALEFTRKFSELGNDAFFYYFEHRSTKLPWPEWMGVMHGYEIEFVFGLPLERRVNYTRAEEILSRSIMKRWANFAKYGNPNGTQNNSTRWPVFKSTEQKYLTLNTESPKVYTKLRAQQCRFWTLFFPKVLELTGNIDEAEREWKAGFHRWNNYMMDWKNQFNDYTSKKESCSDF
# Chain of mGAT2 (P31651 whole entry): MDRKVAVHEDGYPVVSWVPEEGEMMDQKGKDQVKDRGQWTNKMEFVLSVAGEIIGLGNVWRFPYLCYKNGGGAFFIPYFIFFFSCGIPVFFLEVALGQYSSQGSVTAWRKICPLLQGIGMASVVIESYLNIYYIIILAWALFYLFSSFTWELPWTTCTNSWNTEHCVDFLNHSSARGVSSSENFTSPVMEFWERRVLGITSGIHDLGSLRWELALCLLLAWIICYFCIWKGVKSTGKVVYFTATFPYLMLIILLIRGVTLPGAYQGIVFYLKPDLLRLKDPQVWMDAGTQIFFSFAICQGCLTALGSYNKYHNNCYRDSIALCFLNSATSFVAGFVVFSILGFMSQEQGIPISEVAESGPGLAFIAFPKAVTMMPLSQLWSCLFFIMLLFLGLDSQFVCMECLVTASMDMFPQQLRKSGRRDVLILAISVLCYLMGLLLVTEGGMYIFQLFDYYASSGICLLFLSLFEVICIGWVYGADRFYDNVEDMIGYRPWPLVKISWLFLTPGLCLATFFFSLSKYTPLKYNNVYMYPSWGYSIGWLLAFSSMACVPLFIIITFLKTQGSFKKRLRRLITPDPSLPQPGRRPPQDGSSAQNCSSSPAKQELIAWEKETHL
# Chain of human plasma butyrylcholinesterase (hBuChE) (P06276 29-602): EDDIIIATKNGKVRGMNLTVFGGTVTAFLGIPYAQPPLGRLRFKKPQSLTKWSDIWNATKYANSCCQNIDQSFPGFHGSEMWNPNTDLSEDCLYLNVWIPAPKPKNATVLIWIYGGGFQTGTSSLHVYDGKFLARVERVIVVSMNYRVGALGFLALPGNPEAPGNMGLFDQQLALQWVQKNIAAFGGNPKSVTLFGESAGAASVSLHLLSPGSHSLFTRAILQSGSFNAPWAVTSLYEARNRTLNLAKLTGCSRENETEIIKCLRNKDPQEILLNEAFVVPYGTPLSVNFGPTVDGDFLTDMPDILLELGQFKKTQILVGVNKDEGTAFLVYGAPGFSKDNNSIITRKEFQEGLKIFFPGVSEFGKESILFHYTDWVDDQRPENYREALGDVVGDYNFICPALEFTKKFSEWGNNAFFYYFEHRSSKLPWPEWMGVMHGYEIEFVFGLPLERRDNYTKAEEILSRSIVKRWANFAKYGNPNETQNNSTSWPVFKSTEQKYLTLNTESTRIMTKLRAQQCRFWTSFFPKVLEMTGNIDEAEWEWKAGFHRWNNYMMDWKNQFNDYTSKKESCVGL
# Chain of mGAT3 (P31649 whole entry): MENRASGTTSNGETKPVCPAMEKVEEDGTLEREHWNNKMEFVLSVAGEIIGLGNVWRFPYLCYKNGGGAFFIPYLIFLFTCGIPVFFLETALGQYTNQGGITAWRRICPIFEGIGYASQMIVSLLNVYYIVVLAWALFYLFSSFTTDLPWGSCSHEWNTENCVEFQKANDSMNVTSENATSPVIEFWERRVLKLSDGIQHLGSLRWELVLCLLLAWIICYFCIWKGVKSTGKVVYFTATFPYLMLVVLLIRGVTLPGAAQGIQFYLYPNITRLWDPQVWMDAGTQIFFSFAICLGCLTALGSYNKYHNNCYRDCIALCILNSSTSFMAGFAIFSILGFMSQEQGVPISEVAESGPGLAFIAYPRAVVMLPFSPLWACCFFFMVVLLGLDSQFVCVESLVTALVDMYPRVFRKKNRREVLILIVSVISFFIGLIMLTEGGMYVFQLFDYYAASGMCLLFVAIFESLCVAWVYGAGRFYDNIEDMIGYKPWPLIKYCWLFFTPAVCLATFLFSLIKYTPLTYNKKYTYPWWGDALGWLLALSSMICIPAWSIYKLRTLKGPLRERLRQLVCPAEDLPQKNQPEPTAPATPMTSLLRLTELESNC
smiles,measurement,setting,value
"C[C@H](NC[C@@H](O)[C@H](Cc1ccccc1)NC(=O)CC1c2ccccc2-c2ccccc21)c1ccccc1 [Compound 23, 2-(9H-fluoren-9-yl)-N-((2S,3R)-3-hydroxy-1-phenyl-4-(((S)-1-phenylethyl)amino)butan-2-yl)acetamide]","percentage of [3H]GABA reuptake retained, mGAT4",[1],61%
same,IC50,[2],8.86 µM
same,IC50,[3],0.558 µM
same,"percentage of [3H]GABA reuptake retained, mGAT3",[4]; [9],59%
same,IC50,[5],7.36 µM
same,pIC50 (+/−SEM) mGAT1,[6]; GABA reuptake,4.73
same,IC50,[7]; read-out: pIC50 (+/−SEM) mGAT2 (converted),14.5 µM
same,inhibition at 10 µM,[8],59.4%
"O[C@@H](CNCC1CCCCC1)[C@H](Cc1ccccc1)NC1c2ccccc2-c2ccccc21 [Compound 11, (2S,3S)-3-((9H-fluoren-9-yl)amino)-1-((cyclohexylmethyl)amino)-4-phenylbutan-2-ol]","percentage of [3H]GABA reuptake retained, mGAT4",[1],59%
same,IC50,[2],0.955 µM
same,inhibition at 1 µM,"[3]; 1 μM inhibitor concentration, read-out: hBuChE % inh",76.5%
same,pIC50 (+/−SEM) mGAT3,[4]; GABA reuptake,4.94
same,IC50,[5],8.6 µM
same,"percentage of [3H]GABA reuptake retained, mGAT1",[6]; [9],54%
same,pIC50 (+/−SEM) mGAT2,[7],4.97
same,inhibition at 10 µM,[8],78.6%
